# Data as given in ChEMBL document CHEMBL1201862, “PubChem BioAssay data set” (2004).
# Activity calls are given as the source filed them.
# What was measured:
# Vero [1] = experiment: cells; assay type: functional, Chlorocebus sabaeus; settings: Chlorocebus sabaeus, Vero
# Vero [2] = experiment: cells; assay type: functional, cell-based; settings: Chlorocebus sabaeus
# Cytochrome P450 3A4 [3] = target: T1, Cytochrome P450 3A4 (Homo sapiens, UniProt P08684)
# [4] = target: T2, Calpain-2 catalytic subunit (Sus scrofa, UniProt P43367); experiment: m-calpain protease blockers, concentration series – biochemical, fluorogenic peptide substrate, dose response (AID 1420); assay type: functional
# T2 sequence (P43367 whole entry): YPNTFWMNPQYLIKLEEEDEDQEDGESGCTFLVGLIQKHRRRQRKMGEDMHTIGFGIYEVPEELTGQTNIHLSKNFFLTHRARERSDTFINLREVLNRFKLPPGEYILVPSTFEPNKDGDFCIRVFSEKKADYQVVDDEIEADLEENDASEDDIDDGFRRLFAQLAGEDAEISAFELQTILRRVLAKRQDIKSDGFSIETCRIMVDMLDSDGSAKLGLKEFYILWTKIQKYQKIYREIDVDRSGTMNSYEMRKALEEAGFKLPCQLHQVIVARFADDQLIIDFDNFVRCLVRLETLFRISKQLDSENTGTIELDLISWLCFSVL
# Cytochrome P450 3A4 [5] = target: T1, Cytochrome P450 3A4; settings: Potency
# [6] = target: T3, Short transient receptor potential channel 4 (Mus musculus, UniProt Q9QUQ5); experiment: block of DAMGO-driven TRPC4 calcium entry – cell-based, HEK293 TRPC4/mu-opioid, Fluo-4 calcium, dose response (AID 434942); assay type: functional;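 further: potency of inhibitors blocking the TRPC4 calcium response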
# T3 sequence (Q9QUQ5 whole entry): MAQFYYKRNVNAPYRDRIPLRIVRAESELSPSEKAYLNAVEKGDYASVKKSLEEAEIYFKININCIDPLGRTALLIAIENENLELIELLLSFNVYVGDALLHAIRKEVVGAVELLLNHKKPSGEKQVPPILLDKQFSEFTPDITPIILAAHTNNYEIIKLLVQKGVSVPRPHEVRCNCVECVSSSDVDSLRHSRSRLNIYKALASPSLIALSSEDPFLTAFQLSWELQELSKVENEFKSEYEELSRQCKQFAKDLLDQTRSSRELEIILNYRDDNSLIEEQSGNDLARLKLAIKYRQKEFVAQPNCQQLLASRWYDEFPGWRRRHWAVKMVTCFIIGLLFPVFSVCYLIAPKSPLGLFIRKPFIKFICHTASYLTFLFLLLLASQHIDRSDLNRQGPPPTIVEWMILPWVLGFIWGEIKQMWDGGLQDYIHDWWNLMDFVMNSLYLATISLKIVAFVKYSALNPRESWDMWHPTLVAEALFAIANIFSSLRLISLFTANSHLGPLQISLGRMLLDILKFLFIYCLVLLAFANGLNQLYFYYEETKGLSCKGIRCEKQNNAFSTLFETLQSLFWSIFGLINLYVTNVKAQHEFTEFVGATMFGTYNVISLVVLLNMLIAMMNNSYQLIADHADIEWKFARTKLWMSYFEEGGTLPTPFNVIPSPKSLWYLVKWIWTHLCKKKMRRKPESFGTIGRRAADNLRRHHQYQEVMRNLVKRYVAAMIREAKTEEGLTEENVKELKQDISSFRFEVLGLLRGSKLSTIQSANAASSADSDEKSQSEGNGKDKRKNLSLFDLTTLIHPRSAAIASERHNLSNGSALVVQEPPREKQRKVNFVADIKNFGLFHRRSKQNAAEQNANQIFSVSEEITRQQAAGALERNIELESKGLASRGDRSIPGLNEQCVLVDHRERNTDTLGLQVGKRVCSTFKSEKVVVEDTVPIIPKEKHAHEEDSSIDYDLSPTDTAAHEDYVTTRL
# Cytochrome P450 2C9 = Cytochrome P450 2C9 (Homo sapiens, UniProt P11712)
# Cytochrome P450 2D6 = Cytochrome P450 2D6 (Homo sapiens, UniProt P10635);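 further: CYP2D6 member of a cytochrome P450 panel assay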
# Cytochrome P450 2C19 = Cytochrome P450 2C19 (Homo sapiens, UniProt P33261); experiment: Cytochrome panel assay with activity outcomes. Panel member name: p450-cyp2c19 Compounds with AC50 equal or less than 10 uM are considered active; assay type: functional
# cells [7] = assay type: functional, cell-based
# cells [8] = assay type: functional, cell-based; remark: listed apart in the source
# [9] = target: Induced myeloid leukemia cell differentiation protein Mcl-1 (Homo sapiens, UniProt Q07820); assay type: functional
# [10] = target: T4, Voltage-gated N-type calcium channel alpha-1B subunit/Amyloid beta A4 precursor protein-binding family A member 1 (Homo sapiens, UniProt Q00975+Q02410); assay type: protein assay
# [11] = target: T4, Voltage-gated N-type calcium channel alpha-1B subunit/Amyloid beta A4 precursor protein-binding family A member 1; assay type: protein assay; remark: listed apart in the source
# Cytochrome P450 3A4 [12] = target: T1, Cytochrome P450 3A4; remark: listed apart in the source
# Streptococcus = experiment: GAS UMAA2166 growth inhibition – luminescence, BacTiterGlo, counter-screen for streptokinase expression inhibitor project, dose response (AID 1915); assay type: functional, organism-based;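 further: potency for reduction of bacterial viability or growth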
# [13] = viability of uninfected HEp-2 cells – cell-based, HTS, cytotoxicity control for RSV inhibitor project, dose response (AID 2410); assay type: functional; settings: human respiratory syncytial virus
# Streptokinase A = target: T5, Streptokinase A (Streptococcus pyogenes serotype M1, UniProt P10520); experiment: viability-normalized secreted streptokinase activity reduction – plasminogen activation absorbance, OD405, dose response (AID 1914); assay type: functional, Streptococcus pyogenes M1 GAS;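 further: secreted streptokinase activity via plasminogen activation per viability signal from cell pellet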
# T5 sequence (P10520 whole entry): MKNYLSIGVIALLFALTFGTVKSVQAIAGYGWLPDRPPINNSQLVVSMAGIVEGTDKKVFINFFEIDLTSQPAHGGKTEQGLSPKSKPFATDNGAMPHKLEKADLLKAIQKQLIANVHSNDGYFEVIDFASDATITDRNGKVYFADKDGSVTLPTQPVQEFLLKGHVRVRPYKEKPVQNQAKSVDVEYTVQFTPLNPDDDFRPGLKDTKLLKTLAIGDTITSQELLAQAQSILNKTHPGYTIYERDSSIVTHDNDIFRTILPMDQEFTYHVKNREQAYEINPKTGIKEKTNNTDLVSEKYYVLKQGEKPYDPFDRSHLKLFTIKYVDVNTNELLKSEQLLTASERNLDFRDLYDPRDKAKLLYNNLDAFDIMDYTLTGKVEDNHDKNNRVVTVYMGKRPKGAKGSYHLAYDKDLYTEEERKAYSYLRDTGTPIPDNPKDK
# [14] = test system: Streptococcus sp. 'group A'; experiment: Streptococcus pyogenes SK(-)GAS viability under kanamycin – luminescence, BacTiterGlo, confirmation, counter-screen for streptokinase expression inhibitor project, dose response (AID 1900); assay type: functional, organism-based
# [15] = Luminescence Cell-Based Dose Retest to Confirm Inhibitors of Cancer Stem Cells. [Related pubchem assays (depositor defined):AID2717, AID2721]; assay type: functional; settings: Homo sapiens
# Large T antigen = Large T antigen (Simian virus 40, UniProt P03070); assay type: functional, Betapolyomavirus macacae;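 further: Confirmatory-stage PubChem screen for compounds that inhibit SV40 T antigen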
# Caspase-6 = target: T6, Caspase-6 (Homo sapiens, UniProt P55212); experiment: inhibition of CASP6 peptide cleavage – biochemical, VEID-R110 fluorescence, cherry-pick, dose response (AID 720632)
# T6 sequence (P55212 whole entry): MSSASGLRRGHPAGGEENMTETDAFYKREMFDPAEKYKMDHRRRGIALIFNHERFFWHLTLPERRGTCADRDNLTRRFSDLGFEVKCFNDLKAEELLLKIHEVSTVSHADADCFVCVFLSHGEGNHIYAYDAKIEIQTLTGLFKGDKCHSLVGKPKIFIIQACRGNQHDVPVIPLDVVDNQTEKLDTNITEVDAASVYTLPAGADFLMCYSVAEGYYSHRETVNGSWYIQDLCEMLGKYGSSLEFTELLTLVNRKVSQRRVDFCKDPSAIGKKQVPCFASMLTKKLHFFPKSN
# T1 sequence (P08684 whole entry): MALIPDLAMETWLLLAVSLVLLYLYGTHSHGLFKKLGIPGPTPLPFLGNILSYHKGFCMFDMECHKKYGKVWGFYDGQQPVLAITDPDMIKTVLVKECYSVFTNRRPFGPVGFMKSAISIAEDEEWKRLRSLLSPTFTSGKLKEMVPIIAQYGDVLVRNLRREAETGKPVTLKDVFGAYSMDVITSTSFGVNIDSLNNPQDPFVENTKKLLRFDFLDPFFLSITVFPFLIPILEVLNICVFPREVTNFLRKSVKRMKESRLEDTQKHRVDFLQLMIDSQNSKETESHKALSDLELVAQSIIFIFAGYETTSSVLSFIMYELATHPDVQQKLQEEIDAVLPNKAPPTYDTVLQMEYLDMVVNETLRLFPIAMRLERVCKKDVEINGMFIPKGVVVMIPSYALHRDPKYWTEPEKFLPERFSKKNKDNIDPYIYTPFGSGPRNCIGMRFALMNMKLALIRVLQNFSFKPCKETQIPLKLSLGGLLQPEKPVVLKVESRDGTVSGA
# Sequence of Cytochrome P450 2C9 (P11712 whole entry): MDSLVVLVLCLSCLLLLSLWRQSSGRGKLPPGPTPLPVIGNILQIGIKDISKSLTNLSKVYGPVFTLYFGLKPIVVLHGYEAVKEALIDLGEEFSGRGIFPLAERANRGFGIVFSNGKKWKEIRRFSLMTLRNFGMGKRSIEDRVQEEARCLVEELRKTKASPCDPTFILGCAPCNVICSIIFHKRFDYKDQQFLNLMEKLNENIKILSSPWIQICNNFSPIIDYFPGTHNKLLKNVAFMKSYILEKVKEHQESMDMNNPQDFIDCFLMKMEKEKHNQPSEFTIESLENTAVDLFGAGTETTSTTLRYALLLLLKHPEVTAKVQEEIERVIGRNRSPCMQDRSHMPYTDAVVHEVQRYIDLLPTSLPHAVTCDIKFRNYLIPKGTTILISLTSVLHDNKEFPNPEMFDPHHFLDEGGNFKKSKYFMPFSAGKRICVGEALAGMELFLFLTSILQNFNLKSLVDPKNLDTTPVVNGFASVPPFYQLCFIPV
# T4 sequence (Q00975 whole entry): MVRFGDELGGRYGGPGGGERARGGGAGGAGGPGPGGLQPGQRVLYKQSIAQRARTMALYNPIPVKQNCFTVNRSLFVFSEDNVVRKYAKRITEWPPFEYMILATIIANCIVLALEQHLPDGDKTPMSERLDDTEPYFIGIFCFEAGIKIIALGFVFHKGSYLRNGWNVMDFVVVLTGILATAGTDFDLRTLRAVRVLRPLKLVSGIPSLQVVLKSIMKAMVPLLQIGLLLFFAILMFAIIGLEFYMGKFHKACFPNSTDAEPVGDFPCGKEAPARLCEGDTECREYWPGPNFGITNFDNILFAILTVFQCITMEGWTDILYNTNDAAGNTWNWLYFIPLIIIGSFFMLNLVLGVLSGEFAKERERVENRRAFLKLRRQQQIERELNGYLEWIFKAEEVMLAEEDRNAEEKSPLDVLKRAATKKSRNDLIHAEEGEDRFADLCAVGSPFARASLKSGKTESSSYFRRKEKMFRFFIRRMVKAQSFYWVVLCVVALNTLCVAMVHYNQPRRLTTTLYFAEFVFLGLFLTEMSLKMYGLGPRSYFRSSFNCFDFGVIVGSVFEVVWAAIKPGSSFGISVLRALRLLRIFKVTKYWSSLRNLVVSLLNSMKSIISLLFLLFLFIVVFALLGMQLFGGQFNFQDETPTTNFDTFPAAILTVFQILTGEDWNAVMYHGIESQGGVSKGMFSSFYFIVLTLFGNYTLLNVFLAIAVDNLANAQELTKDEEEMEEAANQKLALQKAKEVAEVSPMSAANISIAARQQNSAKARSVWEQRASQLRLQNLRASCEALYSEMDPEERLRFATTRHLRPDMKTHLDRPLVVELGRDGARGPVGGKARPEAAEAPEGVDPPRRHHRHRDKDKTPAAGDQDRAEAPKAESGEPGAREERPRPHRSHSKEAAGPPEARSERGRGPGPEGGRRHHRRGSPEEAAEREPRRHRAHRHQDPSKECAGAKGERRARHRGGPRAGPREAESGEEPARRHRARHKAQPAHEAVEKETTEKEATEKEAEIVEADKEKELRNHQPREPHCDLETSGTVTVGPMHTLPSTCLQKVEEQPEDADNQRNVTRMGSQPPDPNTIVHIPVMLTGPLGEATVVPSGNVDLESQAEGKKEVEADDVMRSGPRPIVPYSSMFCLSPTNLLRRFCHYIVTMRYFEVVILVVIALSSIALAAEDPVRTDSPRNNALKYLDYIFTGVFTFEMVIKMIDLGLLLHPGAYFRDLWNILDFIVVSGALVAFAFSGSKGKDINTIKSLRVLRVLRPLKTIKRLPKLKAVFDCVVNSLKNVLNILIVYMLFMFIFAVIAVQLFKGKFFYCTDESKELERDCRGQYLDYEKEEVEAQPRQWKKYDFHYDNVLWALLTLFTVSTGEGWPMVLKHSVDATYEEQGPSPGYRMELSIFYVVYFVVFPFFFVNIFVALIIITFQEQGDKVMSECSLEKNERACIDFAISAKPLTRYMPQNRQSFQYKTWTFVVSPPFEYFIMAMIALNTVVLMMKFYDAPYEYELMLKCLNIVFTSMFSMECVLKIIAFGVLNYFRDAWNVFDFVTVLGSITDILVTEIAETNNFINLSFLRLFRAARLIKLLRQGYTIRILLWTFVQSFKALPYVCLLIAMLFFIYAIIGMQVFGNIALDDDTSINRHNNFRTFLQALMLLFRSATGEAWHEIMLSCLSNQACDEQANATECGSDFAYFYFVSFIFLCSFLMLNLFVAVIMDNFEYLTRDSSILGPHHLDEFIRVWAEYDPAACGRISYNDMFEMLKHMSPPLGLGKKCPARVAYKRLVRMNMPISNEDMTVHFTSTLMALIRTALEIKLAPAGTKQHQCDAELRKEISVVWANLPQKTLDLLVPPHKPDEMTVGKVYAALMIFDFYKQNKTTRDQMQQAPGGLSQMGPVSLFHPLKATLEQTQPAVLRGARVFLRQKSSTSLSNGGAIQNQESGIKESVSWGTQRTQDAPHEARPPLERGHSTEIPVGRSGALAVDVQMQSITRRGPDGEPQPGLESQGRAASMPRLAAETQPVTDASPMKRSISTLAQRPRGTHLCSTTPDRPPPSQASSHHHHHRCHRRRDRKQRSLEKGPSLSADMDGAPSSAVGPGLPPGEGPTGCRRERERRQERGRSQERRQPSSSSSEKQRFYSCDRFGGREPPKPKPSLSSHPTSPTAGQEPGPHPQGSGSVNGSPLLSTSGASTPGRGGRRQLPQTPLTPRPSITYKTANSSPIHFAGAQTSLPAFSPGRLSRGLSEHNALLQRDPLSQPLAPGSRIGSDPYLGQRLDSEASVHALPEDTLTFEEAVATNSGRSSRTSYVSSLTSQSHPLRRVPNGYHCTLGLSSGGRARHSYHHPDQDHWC
# T4 sequence (Q02410 whole entry): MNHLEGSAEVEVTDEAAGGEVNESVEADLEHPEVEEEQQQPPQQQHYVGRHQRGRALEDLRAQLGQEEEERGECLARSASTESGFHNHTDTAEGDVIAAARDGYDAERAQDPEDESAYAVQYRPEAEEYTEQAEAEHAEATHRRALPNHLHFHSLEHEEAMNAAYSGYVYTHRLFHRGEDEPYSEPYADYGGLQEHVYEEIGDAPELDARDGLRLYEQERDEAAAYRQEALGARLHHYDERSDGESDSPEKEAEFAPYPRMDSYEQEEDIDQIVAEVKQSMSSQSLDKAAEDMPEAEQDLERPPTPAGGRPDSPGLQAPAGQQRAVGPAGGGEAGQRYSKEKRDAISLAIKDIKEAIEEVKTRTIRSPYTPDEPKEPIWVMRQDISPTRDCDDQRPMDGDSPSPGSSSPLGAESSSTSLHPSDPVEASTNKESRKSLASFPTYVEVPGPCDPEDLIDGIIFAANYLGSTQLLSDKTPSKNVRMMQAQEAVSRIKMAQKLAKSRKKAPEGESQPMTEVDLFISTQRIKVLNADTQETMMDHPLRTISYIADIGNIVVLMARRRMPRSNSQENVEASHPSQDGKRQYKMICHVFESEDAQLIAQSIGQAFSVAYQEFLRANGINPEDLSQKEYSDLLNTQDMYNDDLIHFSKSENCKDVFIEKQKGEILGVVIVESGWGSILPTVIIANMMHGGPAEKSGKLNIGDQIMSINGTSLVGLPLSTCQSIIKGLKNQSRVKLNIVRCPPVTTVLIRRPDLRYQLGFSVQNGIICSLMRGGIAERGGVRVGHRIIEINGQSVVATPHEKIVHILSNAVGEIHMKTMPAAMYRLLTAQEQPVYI
# Sequence of Induced myeloid leukemia cell differentiation protein Mcl-1 (Q07820 whole entry): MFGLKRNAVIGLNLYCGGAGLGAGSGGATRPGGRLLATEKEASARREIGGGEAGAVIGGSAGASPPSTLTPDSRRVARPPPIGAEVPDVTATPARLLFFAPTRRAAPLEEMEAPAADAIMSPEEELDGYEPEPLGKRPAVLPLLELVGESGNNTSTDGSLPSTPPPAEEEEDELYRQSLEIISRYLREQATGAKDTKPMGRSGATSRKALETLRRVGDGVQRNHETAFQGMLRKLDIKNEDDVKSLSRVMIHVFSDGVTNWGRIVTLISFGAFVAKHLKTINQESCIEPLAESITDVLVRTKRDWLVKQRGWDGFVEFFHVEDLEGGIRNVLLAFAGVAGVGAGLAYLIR
# Sequence of Cytochrome P450 2C19 (P33261 whole entry): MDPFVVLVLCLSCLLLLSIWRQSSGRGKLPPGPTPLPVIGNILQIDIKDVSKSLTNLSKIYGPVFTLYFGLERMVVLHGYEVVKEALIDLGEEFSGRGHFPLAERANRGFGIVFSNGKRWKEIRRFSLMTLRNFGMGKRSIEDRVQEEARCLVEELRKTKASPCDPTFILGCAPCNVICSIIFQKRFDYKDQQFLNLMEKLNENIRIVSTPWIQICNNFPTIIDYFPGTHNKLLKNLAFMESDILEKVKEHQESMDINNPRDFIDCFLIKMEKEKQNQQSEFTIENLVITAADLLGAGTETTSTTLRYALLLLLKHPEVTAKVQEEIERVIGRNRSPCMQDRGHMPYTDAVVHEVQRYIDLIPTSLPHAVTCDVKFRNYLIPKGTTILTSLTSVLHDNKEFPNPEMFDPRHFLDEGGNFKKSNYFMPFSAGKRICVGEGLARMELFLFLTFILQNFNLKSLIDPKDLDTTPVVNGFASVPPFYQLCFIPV
compound,measurement,setting,value
O=C(Cc1coc2ccc3ccccc3c12)Nc1nnc(C2CC2)s1,CC50,Vero [1],> 25 µM (active)
same,IC50,Vero [2],21.7 µM (active)
Cn1c(=O)c(-c2ccc(Cl)cc2)nc2cnc(Oc3ccccc3)nc21,AC50,Cytochrome P450 3A4 [3],inconclusive
O=C(CSc1nnnn1-c1ccc2c(c1)OCCO2)OC1CCCCC1,IC50,[4],10.3 µM (not active)
CCCCNC(=O)C(c1ccc(OCC(=O)OC)c(C(=O)OC)c1)N(CCOC)C(=O)CCCCCN1C(=O)NC(c2ccc(-c3ccccc3)cc2)C(C(=O)OCc2ccccc2)=C1C (centres undefined),AC50,Cytochrome P450 3A4 [5],3.16 µM (inconclusive)
Cn1cc(CNCC2CCCO2)c(-c2ccc(Oc3ccccc3)cc2)n1 (centres undefined),EC50,[6],3.35 µM (active)
O=C(c1csnn1)N1CCC2(CC1)CN(C(c1ccccc1)c1ccccc1)C2,AC50,Cytochrome P450 2C9,15.8 µM (inconclusive)
same,AC50,Cytochrome P450 2D6,12.6 µM (inconclusive)
same,AC50,Cytochrome P450 2C19; read-out: AC50,0.00631 µM (inconclusive)
same,AC50,Cytochrome P450 3A4 [3],inconclusive
O=C(c1ccc(-c2nnc(-c3ccccc3)o2)cc1)N1CCCCCC1,EC50,cells [7],> 350 µM (not active)
same,IC50,[4],11 µM (not active)
same,EC50,cells [8],5.78 µM (active)
CC(C)CCC(CCN1CCCC1)c1ccc2c(c1)OCO2 (centres undefined),IC50,[9],6.38 µM (not active)
CC(=O)N1CC=CC1(C)C(=O)O (centres undefined),AC50,Cytochrome P450 3A4 [5],20 µM (inconclusive)
O=C(CCCCn1c(=O)c2ccccc2n(CC(=O)NC2CCCC2)c1=O)NCc1ccco1,IC50,[4],28.8 µM (not active)
Cc1ccc2c(c1)nnn2C1CCN(S(=O)(=O)c2ccc(C(=O)N3CC(C)CC(C)C3)cc2)CC1 (centres undefined),IC50,[4],3.74 µM (not active)
COC1CC(C)C(OC)c2cc(O)cc(c2O)NC(=O)C(C)=CC=CC(C)C(OC(N)=O)C(C)=CC(C)C1OC (centres undefined),CC50,Vero [1],12.6 µM (active)
Cc1cccn2c(=O)c(/C=N/O)c(Nc3ccccc3F)nc12,IC50,[10],11.4 µM (active)
same,IC50,[11],> 50 µM (inactive)
CCC1=C2CC[C@H]3C(=O)NC(=O)[C@H]3[C@H]2[C@@]2(Cc3ccccc3)/C(=N/CC(=O)OC)OC(=O)N2C1=O,AC50,Cytochrome P450 3A4 [5],15.8 µM (inconclusive)
C=CCn1cnc2scc(-c3ccc(CC)cc3)c2c1=O,EC50,[6],5.96 µM (active)
CCCCc1nc(SCCOC)c2c(=O)n(C)c(=O)n(C)c2n1,EC50,[6],1.5 µM (active)
CCOC(=O)c1sc(=S)n(-c2cccc(C(F)(F)F)c2)c1SC,AC50,Cytochrome P450 2C9,1.58 µM (inconclusive)
same,AC50,Cytochrome P450 3A4 [3],inconclusive
COc1ccc(C(=O)N2CCC3(CC2)CCN(C(c2ccccc2)c2ccccc2)CC3)cc1,AC50,Cytochrome P450 2C9,39.8 µM (inconclusive)
same,AC50,Cytochrome P450 2D6,12.6 µM (inconclusive)
same,AC50,Cytochrome P450 3A4 [3],inconclusive
N#Cc1c(N2CCCCC2)nc(N)c2c(N)nc3c(c12)CC(c1ccccc1)O3 (centres undefined),AC50,Cytochrome P450 2D6,25.1 µM (inconclusive)
same,AC50,Cytochrome P450 3A4 [12],1 µM (inconclusive)
same,EC50,[6],2.99 µM (active)
Cc1cc(N2CCCCCC2)nc2ccccc12,EC50,[6],1.33 µM (active)
O=C(CC1C(=O)NCCN1C(=O)Nc1ccc(C(F)(F)F)cc1)Nc1ccc(F)cc1 (centres undefined),CC50,Vero [1],> 25 µM (active)
O=C(O)/C=C/C(=O)Nc1ccc(F)cc1F,AC50,Cytochrome P450 2C19; read-out: AC50,39.8 µM (inconclusive)
same,AC50,Cytochrome P450 3A4 [3],inconclusive
CCOC(=O)c1c(N)sc(C(O)(C(F)(F)F)C(F)(F)F)c1-c1ccc(Cl)cc1,EC50,Streptococcus,10.1 µM (active)
same,IC50,[4],13.3 µM (not active)
same,CC50,[13],11.4 µM (active)
same,EC50,Streptokinase A,6.86 µM (active)
same,EC50,[14],1.96 µM (active)
Oc1c(Cl)cc(Cl)cc1/C=C/c1ccc2cccc(O)c2n1,IC50,[9],6.97 µM (not active)
Cc1ccc(NC2=NCC(Cc3ccc(Br)cc3)S2)cc1 (centres undefined),EC50,Streptococcus,10.4 µM (active)
same,IC50,[4],5.89 µM (not active)
same,AC50,[15],6.43 µM (active)
same,EC50,Streptokinase A,> 150 µM (not active)
same,EC50,[14],6.42 µM (active)
COc1cccc(N2C(=O)NC(=O)/C(=C\c3ccc([N+](=O)[O-])s3)C2=O)c1,IC50,[10],13.5 µM (active)
same,IC50,[11],6.66 µM (active)
same,IC50,Large T antigen,32.4 µM (active)
same,AC50,Caspase-6,43 µM (active)
Cc1cccnc1NC(=O)C12CCC(C)(C(=O)O1)C2(C)C (centres undefined),AC50,Cytochrome P450 2C19,inconclusive
same,AC50,Cytochrome P450 3A4 [3],inconclusive
COc1c(CC(=O)c2cc3c(cc2O)OC(C)(C)C(O)C3)ccc2c1C=CC(C)(C)O2 (centres undefined) [DIHYDROMUNDULETONE],AC50,Cytochrome P450 3A4 [5],25.1 µM (inconclusive)
Oc1c(Br)cc(/C=N/c2ccc3[nH]c(-c4ccccc4)nc3c2)c(O)c1Br,IC50,[9],1.49 µM (active)
